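96-well plates; 48 h exposure; 5 concentrations. Endpoints by linear interpolation between flanking doses. Not reached: highest tested concentration assigned. The concentration for 50% growth inhibition is given as GI50.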 Active and inactive are the calls of the source. Cut-off read from the data, not from the text of the source: active = GI50 up to about 1.1 µM and inactive = higher.
Tests used:
Assay in all cases: NCI-60 cell line screen, 48 h
SK-OV-3 = test system: SK-OV-3
SF-295 = test system: SF-295
MOLT-4 = test system: MOLT-4
A498 = test system: A498
SF-539 = test system: SF-539
SNB-19 = test system: SNB-19
NCI/ADR-RES = test system: NCI/ADR-RES
MCF7 = test system: MCF7
KM-20L2 = test system: KM-20L2
HOP-92 = test system: HOP-92
IGROV-1 = test system: IGROV-1
786-0 = test system: 786-0

Measured: GI50

O=NN1C(c2ccccc2)CNC(=O)CC1c1ccccc1 (stereo not given)
inactive: SK-OV-3 42 µM | SF-295 32.7 µM | MOLT-4 52.7 µM | A498 35.6 µM | SF-539 35.4 µM | SNB-19 48.5 µM | NCI/ADR-RES 28.7 µM | MCF7 24.9 µM | KM-20L2 25.3 µM | HOP-92 42.8 µM | IGROV-1 63.5 µM

O=c1[nH]c(=O)n(C2CC(O)C(CO)O2)cc1C#Cc1cc(C(F)(F)F)cc(C(F)(F)F)c1 (stereo not given)
inactive: SK-OV-3 91.2 µM | SF-295 17.3 µM | MOLT-4 > 26.9 µM | A498 > 100 µM | SF-539 26.5 µM | SNB-19 20.1 µM | KM-20L2 > 45.4 µM | HOP-92 33.8 µM | IGROV-1 > 36.4 µM

CC1(C)CCC[C@@]2(C)C1C[C@H](O)[C@@]1(C)O[C@@](C)([C@H](O)CO)CCC21 (stereo not given in full)
inactive: SK-OV-3 25.1 µM | SF-295 35.6 µM | MOLT-4 21.2 µM | A498 20.9 µM | SF-539 37.2 µM | SNB-19 49.8 µM | 786-0 44 µM | KM-20L2 40.5 µM | HOP-92 23.7 µM | IGROV-1 28.9 µM

Reference: ChEMBL document CHEMBL1201862, “PubChem BioAssay data set” (2004)
